These results are taken from US20260000642A1 (Tay Therapeutics Limited, priority 2022, published 2026).

Series [1] can be described thus: Pharmacokinetics of Example 101 in Lewis rats (oral, CIA study). The series is classed as in vivo, Lewis rat. The procedure: Blood samples were collected from animals in group 8 on Day 0, and blood samples were collected from group 9 on Day 20. Blood samples from group 8 and group 9 were collected at 0.25, 0.5, 1, 2, 4, 8, 10, 12, 13, and 24-hours following morning administration of their first dose of the compound. The second dose of the compound was administered after the 8-hour collection timepoint. All blood samples were collected at the eye socket and put into tubes containing EDTA-K2 as an anticoagulant and centrifuged at 4° C. at 4,000×g for 5 minutes. Plasma was transferred to a separate tube and stored at −75±15° C. for PK analysis. Pharmacokinetic analyses for Example 101 in Lewis rats were performed as described in Experimental Method B.

A further series deals with CXCL10. The experiment in a line: Human PBMC assay, CXCL10 by ELISA (IFN-γ stimulation). In kind it is cell-based. The procedure:
The impact of Examples 23, 80, and 101 on IL-17A, IL-22, and CXCL10 levels was analyzed in cryopreserved human peripheral blood mononuclear cells (PBMC) by ELISA.
For IL-17A and IL-22 assays, Examples 23, 80, and 101 were serially diluted from 10 mM in DMSO and further diluted in assay media to 100× the required final concentration, of which, 2 μL was added per well to a round-bottom 96-well tissue culture plate where the final DMSO concentration per well was 0.1%. CD2, CD3, and CD28 antibody-coated beads from the T-cell activation/expansion kit (Miltenyi Biotec) were added to the PBMC at a bead-to-cell ratio of 1:2. The mixture of PBMCs and beads were seeded into the wells of the round-bottom 96-well plate at a concentration of 2×10^5 cells/well in a total volume of 200 μL. The cells were cultured for 72 hours at 37° C. and 5% CO2 and then supernatants were collected and IL-17A and IL-22 levels were measured by ELISA. For the CXCL10 assay, Examples 23, 80, and 101 were serially diluted from 10 mM in DMSO and further diluted in assay media to 100× the required final concentration, of which 2 μL was added per well to a 96-well tissue culture plate. The final compound concentration ranged from 30,000 nM to 0.005 nM and the final DMSO concentration per well was 0.3%. PBMCs were seeded at approximately […] in the wells of the 96-well tissue culture plate in a total volume of 190 μL. The plate was incubated for 1 hour at 37° C. and 5% CO2. The cells were then stimulated with IFN-γ (15 ng/mL final concentration) in a volume of 10 μL. The cells were then cultured for 24 hours at 37° C. and 5% CO2. The supernatant was collected and CXCL10 levels were measured by ELISA.

[2] abbreviates: day 0, 10 mg/kg, individual test subjects.
[3] abbreviates: day 20, 10 mg/kg, individual test subjects.

Where “and” joins values, the source holds several entries; their conditions need not be identical. Equal entries are not always repeated.

As to `CNC(=O)c1[nH]c(C(=O)NC2CCC2)cc1O[C@@H](C)c1ccccc1` [Example 101, N^5-cyclobutyl-N^2-methyl-3-(1-phenylethoxy)-1H-pyrrole-2,5-dicarboxamide], in series [1] (setting [2]), the AUClast/D is 820 kg·ng·h/mL/mg and 720 kg·ng·h/mL/mg; the “Plasma concentration at 0.25 h” value was 375 ng/mL and 378 ng/mL and 754 ng/mL; the “Plasma concentration at 24 h” value was 14.3 ng/mL and 35.6 ng/mL and 122 ng/mL; the T1/2 was 2.13 h and 2.54 h and 5.01 h. For the same molecule, the Tmax in series [1] (setting [2]) is 10.0 h (2×) and 2.00 h. Further, in series [1] (day 0, 10 mg/kg, mean), the “AUCInf, Mean” value came out at 15371 ng·h/mL; the “AUClast, Mean” value was 15019 ng·h/mL; the AUClast/D, Mean amounted to 751 kg·ng·h/mL/mg; the “AUC—% Extrap_obs, Mean” value was found to be 2.29%. Moreover, the “MRTInf_obs, Mean” value in series [1] (day 0, 10 mg/kg, mean) was 8.61 h. For the same molecule, in series [1] (setting [3]), the “AUC—% Extrap_obs” value was 0.700%; the Cmax is given as 1660 ng/mL; the “Plasma concentration at 8 h” value was 103 ng/mL and 215 ng/mL and 188 ng/mL; the “Plasma concentration at 24 h” value was 16.7 ng/mL and 20.1 ng/mL and 38.1 ng/mL. Also, in series [1] (day 20, 10 mg/kg, mean), the AUClast/D, Mean was found to be 528 kg·ng·h/mL/mg; the “AUC—% Extrap_obs, Mean” value turned out to be 1.11%; the “Cmax, Mean” value came out at 1707 ng/mL; the “MRTInf_obs, Mean” value was 6.66 h. Moreover, the “selectivity to induction of CXCL10 relative to IL-17A and IL-22” value in the series with CXCL10 is listed as “showed selectivity”. Besides, the “IC50 for CXCL-10 relative to GSK620” value in the series with CXCL10 (IFN-γ, 24 hours, ELISA) is reported as “substantially lower 1050”.
